# Experimental data taken from ChEMBL document CHEMBL5247648, “Design, Synthesis, and Anti-Cancer Evaluation of Novel Cyclic Phosphate Prodrug of Gemcitabine” (J Med Chem, 2023).
# Legend:
# MM1.S = assay: Antiproliferative activity against human MM1.S cells assessed as inhibition of cell proliferation treated for 72 hrs by resazurin dye-based fluorescence assay; assay type: functional
# [1] = Toxicity in castrated male nude Balb/c mouse xenografted with human 22Rv1 cells assessed as tolerance at 50 mg/kg, ip administered twice a week measured after 28 days; assay type: organism-based, CWR22R; conditions: in vivo, 672 h, time 28 day
# CWR22R [2] = assay: Antiproliferative activity against human 22Rv1 cells assessed as inhibition of cell proliferation treated for 72 hrs by resazurin dye-based fluorescence assay; assay type: functional; conditions: 22Rv1, 72 h
# CWR22R [3] = assay: In vivo antitumor activity against human 22Rv1 cells xenografted in castrated male nude Balb/c mouse assessed as tumor growth inhibition at 50 mg/kg, ip administered twice a week measured after 28 days relative to control; assay type: functional; conditions: 22Rv1, 672 h, time 28 day, read-out: TGI
# BXPC-3 [4] = assay: Antiproliferative activity against human BXPC-3 cells assessed as inhibition of cell proliferation treated for 72 hrs by resazurin dye-based fluorescence assay; assay type: functional; conditions: BXPC-3, 72 h
# MV4-11 = assay: Antiproliferative activity against human MV4-11 cells assessed as inhibition of cell proliferation treated for 72 hrs by resazurin dye-based fluorescence assay; assay type: functional; conditions: MV4-11, 72 h
# MIA PaCa-2 = assay: Antiproliferative activity against human MIA PaCa-2 cells assessed as inhibition of cell proliferation treated for 72 hrs by resazurin dye-based fluorescence assay; assay type: functional; conditions: MIA PaCa-2, 72 h
# BXPC-3 [5] = assay: Induction of apoptosis in human BXPC-3 cells assessed as viable cells at 100 nM incubated for 24 hrs by […] (reference value: 93.51 %); assay type: functional; conditions: read-out: Activity
# BXPC-3 [6] = assay: Induction of apoptosis in human BXPC-3 cells assessed as late cells at 100 nM incubated for 24 hrs by […] (reference value: 1.24 %); assay type: functional
# JeKo-1 = assay: Antiproliferative activity against human JeKo-1 cells assessed as inhibition of cell proliferation treated for 72 hrs by resazurin dye-based fluorescence assay; assay type: functional; conditions: JeKo-1, 72 h
# CWR22R [7] = assay: In vivo antitumor activity against human 22Rv1 cells xenografted in castrated male nude Balb/c mouse assessed as relative increment ratio at 50 mg/kg, ip administered twice a week measured after 28 days relative to control; assay type: functional; conditions: time 28 day
# [8] = Toxicity in castrated male nude Balb/c mouse xenografted with human 22Rv1 cells assessed as toxic signs at 50 mg/kg, ip administered twice a week measured after 28 days; assay type: organism-based, CWR22R; conditions: in vivo, 672 h, time 28 day
# BXPC-3 [9] = assay: Induction of apoptosis in human BXPC-3 cells assessed as necrotic cells at 100 nM incubated for 24 hrs by […] (reference value: 3.57 %); assay type: functional
# BXPC-3 [10] = assay: Induction of apoptosis in human BXPC-3 cells assessed as early cells at 100 nM incubated for 24 hrs by […] (reference value: 1.68 %); assay type: functional
# [11] = Toxicity in castrated male nude Balb/c mouse xenografted with human 22Rv1 cells assessed as animal weight loss at 50 mg/kg, ip administered twice a week measured after 28 days; assay type: organism-based, CWR22R; conditions: in vivo, 672 h, time 28 day
# Huh-7 = assay: Antiproliferative activity against human Huh-7 cells assessed as inhibition of cell proliferation treated for 72 hrs by resazurin dye-based fluorescence assay; assay type: functional; conditions: Huh-7, 72 h
# [12] = AUC (0 to infinity) in Beagle dog at 1 mg/kg, iv measured for 0.083 to 24 hrs by LC-MS/MS analysis; assay type: ADME, organism-based, Canis lupus familiaris; set-up: time upper 24 hrs, time lower 0.083 hrs, dose 1 mg/kg, route iv; conditions: in vivo
# [13] = Half life in Beagle dog at 1 mg/kg, iv measured for 0.083 to 24 hrs by LC-MS/MS analysis; assay type: ADME, organism-based, Canis lupus familiaris; conditions: in vivo, time 0.083-24 hrs
# [14] = Cmax in Beagle dog at 1 mg/kg, iv measured for 0.083 to 24 hrs by LC-MS/MS analysis; assay type: ADME, organism-based, Canis lupus familiaris; set-up: time upper 24 hrs, time lower 0.083 hrs, dose 1 mg/kg, route iv; conditions: in vivo
# [15] = Clearance in Beagle dog at 1 mg/kg, iv measured for 0.083 to 24 hrs by LC-MS/MS analysis; assay type: ADME, organism-based, Canis lupus familiaris; conditions: in vivo, time 0.083-24 hrs
smiles,measurement,setting,value
C[C@H](NP(=O)(OC[C@H]1O[C@@H](n2ccc(N)nc2=O)C(F)(F)[C@@H]1O)Oc1ccccc1)C(=O)OCc1ccccc1 (stereo not given in full) [FOSGEMCITABINE PALABENAMIDE],IC50,MM1.S,0.0311 µM
same,Activity,[1],Non-Toxic
same,IC50,CWR22R [2],0.13 µM
same,inhibition in vivo at 50 mg/kg,CWR22R [3],55.6%
same,IC50,BXPC-3 [4],0.23 µM
same,IC50,MV4-11,0.061 µM
same,IC50,MIA PaCa-2,0.142 µM
same,viability at 0.1 µM,BXPC-3 [5],88.7%
same,Activity,BXPC-3 [6],2.3%
same,IC50,JeKo-1,0.16 µM
same,T/C,CWR22R [7],51.9%
same,Activity,[8],Non-Toxic
same,Activity,BXPC-3 [9],7.48%
same,Activity,BXPC-3 [10],1.52%
same,Activity,[11],Non-Toxic
same,IC50,Huh-7,0.35 µM
COC(=O)COP(=O)(N[C@@H](C)C(=O)OCc1ccccc1)OC[C@H]1O[C@@H](n2ccc(N)nc2=O)C(F)(F)[C@@H]1O (stereo not given in full),IC50,MM1.S,0.0041 µM
same,IC50,BXPC-3 [4],0.0352 µM
same,IC50,MV4-11,0.0058 µM
same,IC50,MIA PaCa-2,0.027 µM
same,IC50,JeKo-1,0.0226 µM
same,IC50,Huh-7,0.0282 µM
CC(C)OC(=O)[C@H](C)NP(=O)(OC[C@H]1O[C@@H](n2ccc(N)nc2=O)C(F)(F)[C@@H]1O)Oc1ccccc1 (stereo not given in full),IC50,MM1.S,0.5 µM
same,IC50,BXPC-3 [4],> 1 µM
same,IC50,MIA PaCa-2,0.71 µM
CC(C)OC(=O)COP1(=O)OC[C@H]2O[C@@H](n3ccc(N)nc3=O)C(F)(F)[C@@H]2O1 (stereo not given in full),IC50,MM1.S,0.0054 µM
same,IC50,CWR22R [2],0.015 µM
same,IC50,BXPC-3 [4],0.0475 µM
same,IC50,MV4-11,0.0049 µM
same,IC50,MIA PaCa-2,0.0242 µM
same,IC50,JeKo-1,0.0234 µM
same,IC50,Huh-7,0.0261 µM
COC(=O)COP(=O)(N[C@@H](C)C(=O)OC(C)C)OC[C@H]1O[C@@H](n2ccc(N)nc2=O)C(F)(F)[C@@H]1O (stereo not given in full),IC50,MM1.S,0.0047 µM
same,IC50,BXPC-3 [4],0.0405 µM
same,IC50,MV4-11,0.0035 µM
same,IC50,MIA PaCa-2,0.0294 µM
same,IC50,JeKo-1,0.0262 µM
same,IC50,Huh-7,0.0411 µM
COC(=O)[C@H](C)NP(=O)(OC[C@H]1O[C@@H](n2ccc(N)nc2=O)C(F)(F)[C@@H]1O)Oc1ccccc1 (stereo not given in full),IC50,MM1.S,0.111 µM
same,IC50,BXPC-3 [4],> 1 µM
same,IC50,MIA PaCa-2,0.553 µM
Nc1ccn([C@@H]2O[C@@H]3CO[P@@](=O)(OCC(=O)OCc4ccccc4)O[C@H]3C2(F)F)c(=O)n1,IC50,MM1.S,0.006 µM
same,IC50,CWR22R [2],0.0081 µM
same,IC50,BXPC-3 [4],0.015 µM
same,IC50,MV4-11,0.0041 µM
same,IC50,Huh-7,0.022 µM
C[C@H](NP(=O)(OC[C@H]1O[C@@H](n2ccc(N)nc2=O)C(F)(F)[C@@H]1O)Oc1ccccc1)C(=O)OC1CCCCC1 (stereo not given in full),IC50,MM1.S,0.13 µM
same,IC50,BXPC-3 [4],> 1 µM
same,IC50,MIA PaCa-2,0.54 µM
Nc1ccn([C@@H]2O[C@@H]3CO[P@](=O)(OCC(=O)OCc4ccccc4)O[C@H]3C2(F)F)c(=O)n1,IC50,MM1.S,0.005 µM
same,IC50,CWR22R [2],0.0106 µM
same,IC50,BXPC-3 [4],0.0145 µM
same,IC50,MV4-11,0.0038 µM
same,IC50,Huh-7,0.022 µM
Nc1ccn([C@@H]2O[C@@H]3COP(=O)(OCCC(=O)OCc4ccccc4)O[C@H]3C2(F)F)c(=O)n1 (stereo not given in full),IC50,BXPC-3 [4],0.0684 µM
same,IC50,MIA PaCa-2,0.029 µM
CCCC(CCC)C(=O)Nc1ccn([C@@H]2O[C@H](COP(=O)(N[C@@H](C)C(=O)OCc3ccccc3)Oc3ccccc3)[C@@H](O)C2(F)F)c(=O)n1 (stereo not given in full),IC50,MM1.S,> 1 µM
same,IC50,BXPC-3 [4],> 1 µM
same,IC50,MIA PaCa-2,> 1 µM
CCC(=O)Nc1ccn([C@@H]2O[C@@H]3COP(=O)(OCC(=O)OCc4ccccc4)O[C@H]3C2(F)F)c(=O)n1 (stereo not given in full),IC50,BXPC-3 [4],0.908 µM
same,IC50,MIA PaCa-2,0.53 µM
CCOC(=O)COP1(=O)OC[C@H]2O[C@@H](n3ccc(N)nc3=O)C(F)(F)[C@@H]2O1 (stereo not given in full),IC50,MM1.S,0.0039 µM
same,IC50,CWR22R [2],0.0205 µM
same,IC50,BXPC-3 [4],0.0226 µM
same,IC50,MV4-11,0.0061 µM
same,IC50,MIA PaCa-2,0.0163 µM
same,IC50,JeKo-1,0.0316 µM
same,IC50,Huh-7,0.0384 µM
COC(=O)COP1(=O)OC[C@H]2O[C@@H](n3ccc(N)nc3=O)C(F)(F)[C@@H]2O1 (stereo not given in full),IC50,MM1.S,0.0027 µM
same,IC50,CWR22R [2],0.0215 µM
same,IC50,BXPC-3 [4],0.0311 µM
same,IC50,MV4-11,0.0058 µM
same,IC50,MIA PaCa-2,0.0136 µM
same,IC50,JeKo-1,0.0232 µM
same,IC50,Huh-7,0.023 µM
CCCC(CCC)C(=O)Nc1ccn([C@@H]2O[C@H](COP(=O)(N[C@@H](C)C(=O)OC(C)C)OCC(=O)OC)[C@@H](O)C2(F)F)c(=O)n1 (stereo not given in full),IC50,MM1.S,> 1 µM
same,IC50,BXPC-3 [4],> 1 µM
same,IC50,MIA PaCa-2,> 1 µM
Nc1ccn([C@@H]2O[C@@H]3COP(=O)(OCCCCC(=O)OCc4ccccc4)O[C@H]3C2(F)F)c(=O)n1 (stereo not given in full),IC50,BXPC-3 [4],0.213 µM
same,IC50,MIA PaCa-2,0.0509 µM
Nc1ccn([C@@H]2O[C@H](COP(=O)(O)OCC(=O)OCc3ccccc3)[C@@H](O)C2(F)F)c(=O)n1,IC50,MM1.S,0.0173 µM
same,AUC(0-inf),[12],0.637 µg·h/mL
same,IC50,CWR22R [2],0.0432 µM
same,half-life,[13],35.2 min
same,IC50,BXPC-3 [4],0.0645 µM
same,Cmax,[14],2.56 µg/mL
same,IC50,MV4-11,0.0103 µM
same,IC50,Huh-7,0.069 µM
same,clearance,[15],1.7 L/h/kg
Nc1ccn([C@@H]2O[C@H](CO)[C@@H](OP(=O)(O)OCC(=O)OCc3ccccc3)C2(F)F)c(=O)n1,IC50,MM1.S,0.0173 µM
same,AUC(0-inf),[12],0.637 µg·h/mL
same,IC50,CWR22R [2],0.0432 µM
same,half-life,[13],35.2 min
same,IC50,BXPC-3 [4],0.0645 µM
same,Cmax,[14],2.56 µg/mL
same,IC50,MV4-11,0.0103 µM
same,IC50,Huh-7,0.069 µM
same,clearance,[15],1.7 L/h/kg
Nc1ccn([C@@H]2O[C@@H]3COP(=O)(OCCCC(=O)OCc4ccccc4)O[C@H]3C2(F)F)c(=O)n1 (stereo not given in full),IC50,BXPC-3 [4],0.0783 µM
same,IC50,MIA PaCa-2,0.0357 µM
